Test results from PubChem BioAssay AID1259407 (Chemical Carcinogenesis Research Information System (CCRIS), 2018).
Active and inactive are the calls of the source. How the calls were made is not given here.

Test system: CCRIS mutagenicity, Ames/micronucleus/aberration tests
Assay: CCRIS mutagenicity studies
[1] = Test System: AMES SALMONELLA TYPHIMURIUM, Strain/Indicator: TA98, Metabolic Activation: NONE, Method: PREINCUBATION
[2] = Test System: AMES SALMONELLA TYPHIMURIUM, Strain/Indicator: TA100, Metabolic Activation: NONE, Method: PREINCUBATION
[3] = Test System: AMES SALMONELLA TYPHIMURIUM, Strain/Indicator: TA1537, Metabolic Activation: NONE, Method: PREINCUBATION

CCc1c2ccccc2c(C)c2c1ccc1ccccc12
mutagenic call (Test System: AMES SALMONELLA TYPHIMURIUM, Strain/Indicator: TA98, Method: STANDARD PLATE): inactive; negative
mutagenic call (Test System: AMES SALMONELLA TYPHIMURIUM, Strain/Indicator: TA100, Metabolic Activation: RAT, LIVER, S-9, PHENOBARBITAL, Method: STANDARD PLATE): inactive; negative
mutagenic call (Test System: AMES SALMONELLA TYPHIMURIUM, Strain/Indicator: TA100, Method: STANDARD PLATE): inactive; negative

Cc1c(O)cc2c(c1O)C(=O)c1ccccc1C2=O
mutagenic call [1]: inactive; negative
mutagenic call (Test System: AMES SALMONELLA TYPHIMURIUM, Strain/Indicator: TA98, Metabolic Activation: RAT, LIVER, S-9, AROCLOR 1254, Method: PREINCUBATION): active; positive
mutagenic call (Test System: AMES SALMONELLA TYPHIMURIUM, Strain/Indicator: TA98, Metabolic Activation: RAT, LIVER, S-9, PCB, Method: PREINCUBATION): active; positive
mutagenic call [2]: inactive; negative
mutagenic call (Test System: AMES SALMONELLA TYPHIMURIUM, Strain/Indicator: TA100, Metabolic Activation: RAT, LIVER, S-9, AROCLOR 1254, Method: PREINCUBATION): active; positive
mutagenic call (Test System: AMES SALMONELLA TYPHIMURIUM, Strain/Indicator: TA100, Metabolic Activation: RAT, LIVER, S-9, PCB, Method: PREINCUBATION): active; positive
mutagenic call [3]: inactive; negative
mutagenic call (Test System: AMES SALMONELLA TYPHIMURIUM, Strain/Indicator: TA1537, Metabolic Activation: RAT, LIVER, S-9, AROCLOR 1254, Method: PREINCUBATION): active; positive
mutagenic call (Test System: UDS RODENT HEPATOCYTES, Strain/Indicator: THY INCORP, Metabolic Activation: NONE): active; positive

FC(F)(F)C(Cl)Br (centres undefined)
mutagenic call (End Point: IN VITRO CHROMOSOMAL ABERRATIONS, Test System: CHINESE HAMSTER OVARY CELLS, Metabolic Activation: NONE): inactive; negative
mutagenic call (End Point: IN VITRO CHROMOSOMAL ABERRATIONS, Test System: CHINESE HAMSTER OVARY CELLS, Metabolic Activation: RAT, LIVER, S-9, AROCLOR 1254): inactive; negative
mutagenic call (Test System: AMES SALMONELLA TYPHIMURIUM, Strain/Indicator: TA98, Metabolic Activation: HAMSTER, LIVER, S-9, AROCLOR 1254 (10%), Method: PREINCUBATION): inactive; negative
mutagenic call [1]: inactive; negative
mutagenic call (Test System: AMES SALMONELLA TYPHIMURIUM, Strain/Indicator: TA98, Metabolic Activation: RAT, LIVER, S-9, AROCLOR 1254 (10%), Method: PREINCUBATION): inactive; negative
mutagenic call (Test System: AMES SALMONELLA TYPHIMURIUM, Strain/Indicator: TA100, Metabolic Activation: HAMSTER, LIVER, S-9, AROCLOR 1254 (10%), Method: PREINCUBATION): inactive; negative
mutagenic call [2]: inactive; negative
mutagenic call (Test System: AMES SALMONELLA TYPHIMURIUM, Strain/Indicator: TA100, Metabolic Activation: RAT, LIVER, S-9, AROCLOR 1254 (10%), Method: PREINCUBATION): inactive; negative
mutagenic call (Test System: AMES SALMONELLA TYPHIMURIUM, Strain/Indicator: TA1535, Metabolic Activation: HAMSTER, LIVER, S-9, AROCLOR 1254 (10%), Method: PREINCUBATION): inactive; negative
mutagenic call (Test System: AMES SALMONELLA TYPHIMURIUM, Strain/Indicator: TA1535, Metabolic Activation: NONE, Method: PREINCUBATION): inactive; negative
mutagenic call (Test System: AMES SALMONELLA TYPHIMURIUM, Strain/Indicator: TA1535, Metabolic Activation: RAT, LIVER, S-9, AROCLOR 1254 (10%), Method: PREINCUBATION): inactive; negative
mutagenic call (Test System: AMES SALMONELLA TYPHIMURIUM, Strain/Indicator: TA1537, Metabolic Activation: HAMSTER, LIVER, S-9, AROCLOR 1254 (10%), Method: PREINCUBATION): inactive; negative
mutagenic call [3]: inactive; negative
mutagenic call (Test System: AMES SALMONELLA TYPHIMURIUM, Strain/Indicator: TA1537, Metabolic Activation: RAT, LIVER, S-9, AROCLOR 1254 (10%), Method: PREINCUBATION): inactive; negative

[N-]=[N+]=NCC[C@H](N)C(=O)O
mutagenic call (Test System: AMES SALMONELLA TYPHIMURIUM, Strain/Indicator: TA1530, Metabolic Activation: NONE, Method: STANDARD PLATE): active; positive

CCN(C=O)N=O
mutagenic call (Test System: AMES SALMONELLA TYPHIMURIUM, Strain/Indicator: TA1535, Metabolic Activation: NONE, Method: STANDARD PLATE): active; positive
mutagenic call (Test System: E. COLI, Strain/Indicator: WU3610, Metabolic Activation: NONE, Method: SUSPENSION/PLATE): active; positive
